Patent publication US20180214393A1, “METHODS FOR TREATING CANCER” (RADIUS PHARMACEUTICALS, INC., priority 2015, published 2018)
Structures can show the parent of a compound that is named as a salt. Where two headings read alike, the source gives them in different places.

Test: Phase 1 dose escalation study in healthy postmenopausal women, plasma pharmacokinetics
Type: in vivo, human
Conditions: for AUC / Cmax / half-life / Tmax: female, human, plasma, oral; for AUC: read-out: AUC0-tau Geo-Mean; for Cmax: read-out: Cmax Geo-Mean
Description: The subjects were treated with placebo or at least one oral dose daily after a light breakfast for 7 days at dose levels of 200 mg, 500 mg, 750 mg and 1000 mg, respectively.
A series of blood samples were taken during the study for the analysis of RAD1901 in plasma. Blood samples of 5 mL each were taken via an indwelling IV catheter or by direct venipuncture into tubes containing K3-EDTA as anticoagulant. Steady state was achieved by day 5 of treatment. […] The median tv2 was between 37.5-42.3 hours (Table 8).

SMILES: CCNCCc1ccc(CN(CC)c2cc(OC)ccc2[C@@H]2CCc3cc(O)ccc3C2)cc1 [RAD1901, (6R)-6-(2-(N-(4-(2-(ethylamino)ethyl)benzyl)-N-ethylamino)-4-methoxyphenyl)-5,6,7,8-tetrahydronaphthalen-2-ol dihydrochloride]
- steady state achieved (daily oral dosing): ≤ 5 days
- plasma exposure vs dose (dose range tested 200-1000 mg): increased more than dose proportionally
- AUC (200 mg, Day 7): 670 ng·h/mL
- Cmax (200 mg, Day 7): 49.8 ng/mL
- half-life (200 mg, Day 7, read-out: t1/2 Geo-Mean (converted)): 38.3 h
- Tmax (200 mg, Day 7, read-out: tmax Median): 3 h
- AUC (500 mg, Day 7): 2930 ng·h/mL
- Cmax (500 mg, Day 7): 197 ng/mL
- half-life (500 mg, Day 7, read-out: t1/2 Geo-Mean (converted)): 37.5 h
- Tmax (500 mg, Day 7, read-out: tmax Median): 4 h
- AUC (750 mg, Day 7): 4610 ng·h/mL
- Cmax (750 mg, Day 7): 322 ng/mL
- half-life (750 mg, Day 7, read-out: t1/2 Geo-Mean (converted)): 38.4 h
- Tmax (750 mg, Day 7, read-out: tmax Median): 3 h
- AUC (1000 mg, Day 7): 8290 ng·h/mL
- Cmax (1000 mg, Day 7): 540 ng/mL
- half-life (1000 mg, Day 7, read-out: t1/2 Geo-Mean (converted)): 42.3 h
- Tmax (1000 mg, Day 7, read-out: tmax Median): 4 h
- half-life (200-1000 mg, Day 7, read-out: median t1/2 across dose groups): 37.5 to 42.3 h
- Tmax (multiple dose administration, read-out: median tmax across dose groups): 3 to 4 h
